# Values quoted from earlier work as cited in PMC6309200 (Journal of Controlled Release, 2018).
# Where a SMILES comes first, the peptide text is derived from it.
# System: PA-specific CD8+ T cells
# Settings: shown previously; ref [15]
compound,measurement,value
CC(=O)N[C@@H](CCC(N)=O)C(=O)N[C@@H](CCC(N)=O)C(=O)N[C@@H](CCCCN)C(=O)N[C@@H](Cc1ccccc1)C(=O)N[C@@H](CCC(N)=O)C(=O)N[C@@H](Cc1ccccc1)C(=O)N[C@@H](CCC(N)=O)C(=O)N[C@@H](Cc1ccccc1)C(=O)N[C@@H](CCC(=O)O)C(=O)N[C@@H](CCC(N)=O)C(=O)N[C@@H](CCC(N)=O)C(N)=O [Q11] (Ac-QQKFQFQFEQQ-NH2),Immunogenicity without attached competent epitopes,non-immunogenic
